From ChEMBL document CHEMBL4507262, “Data for DCP probe A-1596586” (2021)

Experiments:
[1] = molecular target: Insulin-like growth factor 1 receptor (Homo sapiens) (UniProt P08069); details: Compound concentration 1000.0 nM
[2] = molecular target: Serine/threonine-protein kinase PLK4 (Homo sapiens) (UniProt O00444); details: Compound concentration 1000.0 nM
[3] = molecular target: Serine/threonine-protein kinase 16 (Homo sapiens) (UniProt O75716); details: Compound concentration 1000.0 nM
[4] = tested on: Epidermal growth factor receptor (Homo sapiens), P00533 [T790M]; details: Compound concentration 1000.0 nM
[5] = molecular target: Serine/threonine-protein kinase ULK2 (Homo sapiens) (UniProt Q8IYT8); details: Compound concentration 1000.0 nM
[6] = molecular target: RAC-gamma serine/threonine-protein kinase (Homo sapiens) (UniProt Q9Y243); details: Compound concentration 1000.0 nM
[7] = molecular target: Ribosomal protein S6 kinase alpha-1 (Homo sapiens) (UniProt Q15418); details: Compound concentration 1000.0 nM
[8] = molecular target: Serine/threonine-protein kinase SIK1 (Homo sapiens) (UniProt P57059); details: Compound concentration 1000.0 nM
[9] = molecular target: Acetylcholinesterase (Homo sapiens) (UniProt P22303); experiment: Acetylcholinesterase (h) Eurofins-Cerep enzyme and uptake assay; details: Compound concentration 10.0 uM
[10] = molecular target: Phosphatidylinositol 4-phosphate 5-kinase type-1 gamma (Homo sapiens) (UniProt O60331); details: Compound concentration 1000.0 nM
[11] = molecular target: T1, 5-hydroxytryptamine receptor 3A (Homo sapiens) (UniProt P46098); details: Compound concentration 10.0 uM
T1 sequence (whole entry): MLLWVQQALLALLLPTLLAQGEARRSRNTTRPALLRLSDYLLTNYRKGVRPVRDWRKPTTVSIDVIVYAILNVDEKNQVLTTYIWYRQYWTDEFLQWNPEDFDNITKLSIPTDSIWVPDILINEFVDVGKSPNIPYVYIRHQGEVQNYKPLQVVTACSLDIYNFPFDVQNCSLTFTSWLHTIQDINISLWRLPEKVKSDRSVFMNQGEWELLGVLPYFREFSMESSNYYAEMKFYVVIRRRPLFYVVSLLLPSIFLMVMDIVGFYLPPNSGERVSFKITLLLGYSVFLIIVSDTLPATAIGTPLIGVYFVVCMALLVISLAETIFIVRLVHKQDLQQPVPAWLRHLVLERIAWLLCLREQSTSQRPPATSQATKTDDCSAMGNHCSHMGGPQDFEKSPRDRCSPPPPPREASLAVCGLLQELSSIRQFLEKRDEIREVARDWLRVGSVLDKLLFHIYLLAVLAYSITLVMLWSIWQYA

[12] = molecular target: Histamine H2 receptor (Homo sapiens) (UniProt P25021); details: Compound concentration 10.0 uM
[13] = molecular target: cGMP-dependent protein kinase 2 (Homo sapiens) (UniProt Q13237); details: Compound concentration 1000.0 nM
[14] = molecular target: Alpha-1D adrenergic receptor (Homo sapiens) (UniProt P25100); details: Compound concentration 10.0 uM
[15] = molecular target: 5'-AMP-activated protein kinase catalytic subunit alpha-2 (Homo sapiens) (UniProt P54646); details: Compound concentration 1000.0 nM
[16] = molecular target: Serine/threonine-protein kinase WNK4 (Homo sapiens) (UniProt Q96J92); details: Compound concentration 1000.0 nM
[17] = molecular target: Casein kinase I isoform gamma-1 (Homo sapiens) (UniProt Q9HCP0); details: Compound concentration 1000.0 nM
[18] = molecular target: Serine/threonine-protein kinase MRCK gamma (Homo sapiens) (UniProt Q6DT37); details: Compound concentration 1000.0 nM
[19] = molecular target: High affinity nerve growth factor receptor (Homo sapiens) (UniProt P04629); details: Compound concentration 1000.0 nM
[20] = molecular target: Phosphatidylinositol 5-phosphate 4-kinase type-2 gamma (Homo sapiens) (UniProt Q8TBX8); details: Compound concentration 1000.0 nM
[21] = molecular target: Cannabinoid receptor 1 (Homo sapiens) (UniProt P21554); experiment: CB1 (h) Eurofins-Cerep binding assay; parameters: ligand concentration 0.5 nM; details: filed as agonist, Compound concentration 10.0 uM
[22] = molecular target: Serine/threonine-protein kinase TAO3 (Homo sapiens) (UniProt Q9H2K8); details: Compound concentration 1000.0 nM
[23] = molecular target: 5-hydroxytryptamine receptor 1A (Homo sapiens) (UniProt P08908); experiment: 5-HT1A (h) Eurofins-Cerep binding assay; parameters: ligand concentration 0.5 nM; details: filed as agonist, Compound concentration 10.0 uM
[24] = molecular target: Discoidin domain-containing receptor 2 (Homo sapiens) (UniProt Q16832); details: Compound concentration 1000.0 nM
[25] = molecular target: Serine/threonine-protein kinase ICK (Homo sapiens) (UniProt Q9UPZ9); details: Compound concentration 1000.0 nM
[26] = molecular target: Serine/threonine-protein kinase NIM1 (Homo sapiens) (UniProt Q8IY84); details: Compound concentration 1000.0 nM
[27] = molecular target: Estrogen receptor (Homo sapiens) (UniProt P03372); experiment: Estrogen ER alpha (h) Eurofins-Cerep binding assay; parameters: ligand concentration 0.5 nM; details: filed as agonist, Compound concentration 10.0 uM
[28] = molecular target: Cyclin-dependent kinase-like 1 (Homo sapiens) (UniProt Q00532); details: Compound concentration 1000.0 nM
[29] = molecular target: T2, Muscarinic acetylcholine receptor M2 (Homo sapiens) (UniProt P08172); experiment: M2 (h) Eurofins-Cerep binding assay; parameters: ligand concentration 2 nM; details: filed as antagonist, Compound concentration 10.0 uM
T2 sequence (whole entry): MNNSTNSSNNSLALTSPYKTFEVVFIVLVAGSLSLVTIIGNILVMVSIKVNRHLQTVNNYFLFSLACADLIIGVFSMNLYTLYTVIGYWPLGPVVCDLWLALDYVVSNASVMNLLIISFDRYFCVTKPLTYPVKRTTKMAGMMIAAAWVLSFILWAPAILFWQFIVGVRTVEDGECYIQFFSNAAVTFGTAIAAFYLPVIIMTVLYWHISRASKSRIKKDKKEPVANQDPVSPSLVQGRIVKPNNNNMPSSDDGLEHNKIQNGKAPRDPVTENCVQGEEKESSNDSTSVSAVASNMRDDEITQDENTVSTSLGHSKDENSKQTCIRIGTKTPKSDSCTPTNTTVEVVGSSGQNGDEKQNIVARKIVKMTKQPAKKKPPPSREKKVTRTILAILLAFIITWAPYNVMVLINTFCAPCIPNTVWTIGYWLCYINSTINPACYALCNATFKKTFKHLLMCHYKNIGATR

[30] = molecular target: cGMP-inhibited 3',5'-cyclic phosphodiesterase 3A (Homo sapiens) (UniProt Q14432); experiment: PDE3A (h) Eurofins-Cerep enzyme and uptake assay; details: Compound concentration 10.0 uM
[31] = molecular target: Rho-associated protein kinase 2 (Homo sapiens) (UniProt O75116); details: Compound concentration 1000.0 nM
[32] = molecular target: Mitogen-activated protein kinase kinase kinase 12 (Homo sapiens) (UniProt Q12852); details: Compound concentration 1000.0 nM

Sequence of cGMP-inhibited 3',5'-cyclic phosphodiesterase 3A (Homo sapiens) (Q14432 whole entry): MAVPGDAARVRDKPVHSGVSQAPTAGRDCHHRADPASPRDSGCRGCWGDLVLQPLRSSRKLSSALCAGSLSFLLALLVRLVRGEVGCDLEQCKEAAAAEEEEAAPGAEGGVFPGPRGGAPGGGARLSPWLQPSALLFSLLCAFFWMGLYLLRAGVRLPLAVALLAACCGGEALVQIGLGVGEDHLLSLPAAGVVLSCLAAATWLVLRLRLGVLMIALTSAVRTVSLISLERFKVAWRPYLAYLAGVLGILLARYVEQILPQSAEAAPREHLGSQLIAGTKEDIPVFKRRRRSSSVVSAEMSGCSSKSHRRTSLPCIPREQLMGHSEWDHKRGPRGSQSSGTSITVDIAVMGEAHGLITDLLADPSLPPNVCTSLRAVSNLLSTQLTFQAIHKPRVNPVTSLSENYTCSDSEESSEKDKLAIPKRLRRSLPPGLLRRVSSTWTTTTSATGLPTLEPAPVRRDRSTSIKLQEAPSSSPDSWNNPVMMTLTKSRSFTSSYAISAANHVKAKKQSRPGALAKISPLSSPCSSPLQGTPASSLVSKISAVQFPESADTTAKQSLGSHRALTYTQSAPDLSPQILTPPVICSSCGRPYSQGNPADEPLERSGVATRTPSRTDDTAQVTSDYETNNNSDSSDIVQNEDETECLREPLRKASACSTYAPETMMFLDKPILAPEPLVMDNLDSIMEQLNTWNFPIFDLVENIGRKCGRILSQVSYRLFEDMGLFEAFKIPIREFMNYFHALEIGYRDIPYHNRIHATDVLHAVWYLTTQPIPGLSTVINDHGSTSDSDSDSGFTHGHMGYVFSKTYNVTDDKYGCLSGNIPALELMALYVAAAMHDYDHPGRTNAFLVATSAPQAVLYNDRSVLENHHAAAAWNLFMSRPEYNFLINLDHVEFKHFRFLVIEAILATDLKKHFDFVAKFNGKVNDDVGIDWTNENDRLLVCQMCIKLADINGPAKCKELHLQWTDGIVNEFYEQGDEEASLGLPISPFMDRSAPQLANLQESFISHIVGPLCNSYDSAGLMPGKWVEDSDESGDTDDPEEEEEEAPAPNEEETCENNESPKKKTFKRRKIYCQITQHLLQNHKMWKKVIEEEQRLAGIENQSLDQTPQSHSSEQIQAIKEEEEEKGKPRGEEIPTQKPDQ
Sequence of Rho-associated protein kinase 2 (Homo sapiens) (O75116 whole entry, looked up): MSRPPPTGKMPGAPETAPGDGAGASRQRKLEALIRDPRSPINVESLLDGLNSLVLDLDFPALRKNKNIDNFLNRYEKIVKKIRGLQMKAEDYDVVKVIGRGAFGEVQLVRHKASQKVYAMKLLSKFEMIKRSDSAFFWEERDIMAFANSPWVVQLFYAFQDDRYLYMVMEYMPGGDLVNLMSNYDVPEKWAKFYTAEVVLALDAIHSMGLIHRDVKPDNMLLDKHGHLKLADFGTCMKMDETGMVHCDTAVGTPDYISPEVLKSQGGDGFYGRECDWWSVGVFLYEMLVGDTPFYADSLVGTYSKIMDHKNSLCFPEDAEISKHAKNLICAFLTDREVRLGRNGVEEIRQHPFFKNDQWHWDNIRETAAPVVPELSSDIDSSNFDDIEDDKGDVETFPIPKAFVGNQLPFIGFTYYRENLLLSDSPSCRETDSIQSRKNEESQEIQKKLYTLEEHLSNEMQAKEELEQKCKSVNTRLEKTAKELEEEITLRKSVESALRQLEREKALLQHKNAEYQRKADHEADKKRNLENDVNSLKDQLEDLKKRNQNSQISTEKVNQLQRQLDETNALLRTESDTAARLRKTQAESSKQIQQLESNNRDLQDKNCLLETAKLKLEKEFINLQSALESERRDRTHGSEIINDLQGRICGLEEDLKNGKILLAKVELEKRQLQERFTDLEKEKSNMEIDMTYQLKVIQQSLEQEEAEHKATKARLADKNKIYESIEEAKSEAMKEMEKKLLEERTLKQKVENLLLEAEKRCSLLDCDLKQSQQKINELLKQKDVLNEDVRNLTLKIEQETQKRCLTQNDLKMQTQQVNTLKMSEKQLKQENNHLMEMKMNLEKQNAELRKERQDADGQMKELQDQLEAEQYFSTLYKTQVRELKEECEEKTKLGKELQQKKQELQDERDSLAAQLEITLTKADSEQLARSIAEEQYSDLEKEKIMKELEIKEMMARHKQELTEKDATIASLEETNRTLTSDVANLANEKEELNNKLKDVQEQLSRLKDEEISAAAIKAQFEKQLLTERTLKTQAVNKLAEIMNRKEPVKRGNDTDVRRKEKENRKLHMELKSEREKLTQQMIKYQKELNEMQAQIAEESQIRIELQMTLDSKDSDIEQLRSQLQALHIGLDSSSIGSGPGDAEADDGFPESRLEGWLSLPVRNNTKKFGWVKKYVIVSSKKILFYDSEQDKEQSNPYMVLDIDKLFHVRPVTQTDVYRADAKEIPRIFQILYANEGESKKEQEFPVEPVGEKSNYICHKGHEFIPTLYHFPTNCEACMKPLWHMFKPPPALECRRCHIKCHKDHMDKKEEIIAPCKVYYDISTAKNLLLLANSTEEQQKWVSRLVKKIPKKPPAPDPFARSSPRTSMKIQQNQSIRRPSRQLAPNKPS
Sequence of Casein kinase I isoform gamma-1 (Homo sapiens) (Q9HCP0 whole entry, looked up, canonical isoform): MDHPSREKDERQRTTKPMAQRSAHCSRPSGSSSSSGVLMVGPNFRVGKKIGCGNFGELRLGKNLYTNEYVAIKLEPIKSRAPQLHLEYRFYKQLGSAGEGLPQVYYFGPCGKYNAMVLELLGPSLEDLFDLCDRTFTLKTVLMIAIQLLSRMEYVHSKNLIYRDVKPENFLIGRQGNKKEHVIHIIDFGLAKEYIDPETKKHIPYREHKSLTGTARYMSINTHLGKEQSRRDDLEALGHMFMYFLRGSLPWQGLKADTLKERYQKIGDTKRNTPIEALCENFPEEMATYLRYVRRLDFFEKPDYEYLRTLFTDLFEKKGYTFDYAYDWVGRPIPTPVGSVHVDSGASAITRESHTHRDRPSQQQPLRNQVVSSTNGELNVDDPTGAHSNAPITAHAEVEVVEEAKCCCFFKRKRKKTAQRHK
Sequence of Estrogen receptor (Homo sapiens) (P03372 whole entry): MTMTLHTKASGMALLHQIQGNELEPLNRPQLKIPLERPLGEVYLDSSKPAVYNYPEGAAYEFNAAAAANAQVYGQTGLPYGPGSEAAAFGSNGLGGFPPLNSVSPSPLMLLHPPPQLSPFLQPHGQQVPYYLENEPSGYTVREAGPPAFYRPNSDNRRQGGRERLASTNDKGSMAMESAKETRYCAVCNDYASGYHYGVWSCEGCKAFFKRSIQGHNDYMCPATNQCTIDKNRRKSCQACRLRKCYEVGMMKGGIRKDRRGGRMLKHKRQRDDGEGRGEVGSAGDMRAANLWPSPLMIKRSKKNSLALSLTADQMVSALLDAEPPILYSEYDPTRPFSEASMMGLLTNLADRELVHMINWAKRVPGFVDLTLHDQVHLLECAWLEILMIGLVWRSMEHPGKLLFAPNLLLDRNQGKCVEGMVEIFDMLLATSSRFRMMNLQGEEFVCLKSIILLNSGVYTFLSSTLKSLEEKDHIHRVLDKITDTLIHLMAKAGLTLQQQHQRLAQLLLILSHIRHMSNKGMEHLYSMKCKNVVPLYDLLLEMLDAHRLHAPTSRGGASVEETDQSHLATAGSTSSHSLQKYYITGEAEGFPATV
Sequence of Cyclin-dependent kinase-like 1 (Homo sapiens) (Q00532 whole entry): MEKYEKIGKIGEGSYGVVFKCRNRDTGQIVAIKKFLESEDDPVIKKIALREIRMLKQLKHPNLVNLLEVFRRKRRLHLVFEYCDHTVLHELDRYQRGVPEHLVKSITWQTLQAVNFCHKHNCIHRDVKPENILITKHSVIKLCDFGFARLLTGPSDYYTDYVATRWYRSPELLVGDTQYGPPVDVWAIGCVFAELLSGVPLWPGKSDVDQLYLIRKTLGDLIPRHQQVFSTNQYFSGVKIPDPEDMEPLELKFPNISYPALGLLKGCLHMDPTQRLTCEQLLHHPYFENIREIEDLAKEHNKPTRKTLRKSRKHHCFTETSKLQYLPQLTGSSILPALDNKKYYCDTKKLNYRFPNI
Sequence of Ribosomal protein S6 kinase alpha-1 (Homo sapiens) (Q15418 whole entry): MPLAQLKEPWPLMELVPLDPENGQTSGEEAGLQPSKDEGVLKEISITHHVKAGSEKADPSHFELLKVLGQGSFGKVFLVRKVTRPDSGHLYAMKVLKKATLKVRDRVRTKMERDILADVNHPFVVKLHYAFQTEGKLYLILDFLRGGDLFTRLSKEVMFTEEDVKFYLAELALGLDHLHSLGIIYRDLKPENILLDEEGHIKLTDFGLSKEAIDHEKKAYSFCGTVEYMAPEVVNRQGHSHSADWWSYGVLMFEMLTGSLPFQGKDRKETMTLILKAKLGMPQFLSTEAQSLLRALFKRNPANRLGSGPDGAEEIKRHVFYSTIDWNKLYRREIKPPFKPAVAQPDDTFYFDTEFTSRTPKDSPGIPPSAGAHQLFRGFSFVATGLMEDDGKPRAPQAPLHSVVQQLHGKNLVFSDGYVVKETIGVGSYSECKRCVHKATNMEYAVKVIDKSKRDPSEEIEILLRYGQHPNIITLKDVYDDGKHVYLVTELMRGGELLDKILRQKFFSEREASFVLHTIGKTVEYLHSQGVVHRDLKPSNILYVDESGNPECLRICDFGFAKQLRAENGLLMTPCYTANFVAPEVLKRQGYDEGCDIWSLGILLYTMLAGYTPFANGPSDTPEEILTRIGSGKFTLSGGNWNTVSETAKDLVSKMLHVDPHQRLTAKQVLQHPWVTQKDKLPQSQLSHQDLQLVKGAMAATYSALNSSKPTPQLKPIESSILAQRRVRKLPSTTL
Sequence of Phosphatidylinositol 5-phosphate 4-kinase type-2 gamma (Homo sapiens) (Q8TBX8 whole entry): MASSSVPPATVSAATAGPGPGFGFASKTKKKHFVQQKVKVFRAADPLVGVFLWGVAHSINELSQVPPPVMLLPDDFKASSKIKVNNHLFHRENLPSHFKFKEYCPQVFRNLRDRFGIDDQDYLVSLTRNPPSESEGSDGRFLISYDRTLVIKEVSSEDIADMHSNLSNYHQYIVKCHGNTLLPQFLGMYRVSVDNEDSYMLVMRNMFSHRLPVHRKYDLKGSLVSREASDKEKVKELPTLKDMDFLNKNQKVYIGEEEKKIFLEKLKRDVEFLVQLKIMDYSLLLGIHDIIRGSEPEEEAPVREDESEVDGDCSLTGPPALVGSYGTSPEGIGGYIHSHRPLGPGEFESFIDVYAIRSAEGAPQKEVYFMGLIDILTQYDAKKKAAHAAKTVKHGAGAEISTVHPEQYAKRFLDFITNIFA

Row | Structure (SMILES) | residual activity [1] | residual activity [2] | residual activity [3] | residual activity [4] | residual activity [5] | residual activity [6] | residual activity [7] | residual activity [8] | % Inhibition of Control Values (Mean n=2) [9] | residual activity [10] | inhibition [11] | inhibition [12] | residual activity [13] | inhibition [14] | residual activity [15] | residual activity [16] | residual activity [17] | residual activity [18] | residual activity [19] | residual activity [20] | further results
1 | COc1ccc2c(c1)O[C@H](c1ccc(OC)c(OC)c1)C[C@@H]2NC(=O)C1(c2ccc3c(c2)OC(F)(F)O3)CC1 [A-1596584] | 98% | 89% | 100% | 87% | 100% | 100% | 100% | 100% | -3.9% | 100% | -3.53% | -0.89% | 89% | 0.16% | 98% | 83% | 100% | 89% | 100% | 83% | % Inhibition of Control Specific Binding (Mean n=2) [21]: 46%; residual activity [22]: 100%; % Inhibition of Control Specific Binding (Mean n=2) [23]: 5%; residual activity [24]: 94%; residual activity [25]: 80%; residual activity [26]: 84%; % Inhibition of Control Specific Binding (Mean n=2) [27]: -4%; residual activity [28]: 83%; % Inhibition of Control Specific Binding (Mean n=2) [29]: -5.5%; % Inhibition of Control Values (Mean n=2) [30]: -2.1%; residual activity [31]: 88%; residual activity [32]: 87%
2 | COc1ccc2c(c1)O[C@@H](c1ccc(OC)c(OC)c1)C[C@H]2NC(=O)C1(c2ccc3c(c2)OC(F)(F)O3)CC1 [A-1596586] | 90% | 84% | 81% | 82% | 77% | 100% | 98% | 100% | -6.2% | 92% | -1.13% | -6.08% | 96% | 2.75% | 100% | 85% | 99% | 89% | 100% | 83% | % Inhibition of Control Specific Binding (Mean n=2) [21]: 40.8%; residual activity [22]: 91%; % Inhibition of Control Specific Binding (Mean n=2) [23]: 19.2%; residual activity [24]: 98%; residual activity [25]: 74%; residual activity [26]: 94%; % Inhibition of Control Specific Binding (Mean n=2) [27]: 2.9%; residual activity [28]: 82%; % Inhibition of Control Specific Binding (Mean n=2) [29]: -9.9%; % Inhibition of Control Values (Mean n=2) [30]: 1.2%; residual activity [31]: 78%; residual activity [32]: 80%
